A word on the IC50: it is the concentration at which inhibition is half-maximal. The low end stands for inhibition by little substance, the high end for a need for much substance.

Molecules are shown by their SMILES.

The values below come from ChEMBL document CHEMBL3886212, “Disubstituted 3,4-diamino-3-cyclobutene-1,2-dione compounds for use in the treatment of chemokine-mediated diseases” (2015).

For assay [1], the target named is T1, C-X-C chemokine receptor type 1 (Homo sapiens, UniProt P25024).
T1 sequence (P25024 whole entry): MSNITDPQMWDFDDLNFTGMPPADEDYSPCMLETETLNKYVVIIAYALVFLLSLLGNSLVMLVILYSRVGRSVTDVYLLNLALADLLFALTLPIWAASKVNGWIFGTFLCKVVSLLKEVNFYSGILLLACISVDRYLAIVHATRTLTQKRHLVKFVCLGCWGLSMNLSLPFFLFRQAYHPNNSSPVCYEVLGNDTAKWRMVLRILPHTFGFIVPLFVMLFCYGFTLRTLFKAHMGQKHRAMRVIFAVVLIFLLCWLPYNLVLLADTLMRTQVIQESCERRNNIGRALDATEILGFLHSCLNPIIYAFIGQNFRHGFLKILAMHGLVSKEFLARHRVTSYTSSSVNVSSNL
Kind of assay: (§1) Assay Drug Dev Technol. 2007 February; 5(1); 137-44). Type of assay: cell-based.

The target in assay [2] is T2, C-X-C chemokine receptor type 2 (Homo sapiens, UniProt P25025).
T2 sequence (P25025 whole entry): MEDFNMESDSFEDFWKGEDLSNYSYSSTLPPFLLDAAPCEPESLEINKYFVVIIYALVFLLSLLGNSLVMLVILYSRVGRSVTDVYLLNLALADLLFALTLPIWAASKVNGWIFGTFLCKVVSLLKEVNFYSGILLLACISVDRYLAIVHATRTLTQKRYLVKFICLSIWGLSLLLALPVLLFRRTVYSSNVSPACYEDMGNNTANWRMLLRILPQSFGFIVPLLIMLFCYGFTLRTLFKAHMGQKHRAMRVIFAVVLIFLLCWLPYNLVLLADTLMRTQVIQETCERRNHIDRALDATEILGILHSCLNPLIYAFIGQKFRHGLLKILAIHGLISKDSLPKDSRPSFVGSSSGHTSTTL
Described as §1. Type of assay: cell-based.

Consider `Cc1ccc(C(Nc2c(Nc3cccc(C(=O)N(C)C)c3O)c(=O)c2=O)C2(C)CCOCC2)o1` (configuration not stated), for which the IC50 in assay [1] came out at 3.35 µM; in assay [2], 157 nM.
